PMC9501232, “Novel 4-Azapregnene Derivatives as Potential Anticancer Agents: Synthesis, Antiproliferative Activity and Molecular Docking Studies” (Molecules, 2022)
pIC50: −log10 of the molar value.

Tests used:
PC-3 cells = assay: MTT cell proliferation assay, PC-3; type: cell-based, human; settings: for pIC50: Homo sapiens, PC-3, 72 h, MTT; for MTT screening, cell proliferation: PC-3, 30 µM, 72 h, average ± SD
Protocol: (§1) Cell lines, namely LNCaP, PC-3, T47-D and NHDF were obtained from American Type Culture Collection (ATCC; Manassas, VA, USA) and cultured in 75 cm^2 culture flasks at 37 °C in a humidified air incubator with 5% CO2. LNCaP, PC-3 and T47-D cells, which were used in passages 20th to 27th, 25th to 29th and 10th to 15th, respectively, were cultured in RPMI 1640 medium (Sigma-Aldrich, Inc., St. Louis, MO, USA) with 10% fetal bovine serum (FBS; Sigma-Aldrich, Inc. St. Louis, MO, USA) and 1% of the antibiotic mixture of 10,000 IU/mL penicillin G and […] of streptomycin (Sp, Sigma-Aldrich, Inc. St. Louis, MO, USA). Finally, NHDF cells (Normal Human Dermal Fibroblasts) were cultured in RPMI 1640 medium supplemented with 10% FBS, 2 mM L-glutamine, 10 mM HEPES, 1 mM sodium pyruvate and 1% of an antibiotic/antimycotic mixture (10,000 U/mL penicillin G, 100 mg/mL streptomycin and 25 µg/mL amphotericin B) (Ab; Sigma-Aldrich, Inc. St. Louis, MO, USA), and these cells were used in passages 10 to 12. For all cell types, the medium was renewed every 2–3 days until cells reach nearly the confluence state. Then, they were detached gently by trypsinization (trypsin-EDTA solution: 0.125 g/L of trypsin and 0.02 g/L of EDTA).
(§2) All the stock solutions were prepared by dissolving compounds in dimethyl sulfoxide (DMSO; Sigma-Aldrich, Inc., St. Louis, MO, USA) at 10 mM and stored at 4 °C. From these solutions, the several diluted compounds solutions in different concentrations were freshly prepared in a complete culture medium before each experiment.
(§3) As previously referred, cells were trypsinized after reaching a near confluence state and counted by the trypan blue exclusion assay in a Neubauer chamber. Then, 100 µL of cell suspension/well with an initial density of 2 × 10^4 cells/mL were seeded in 96-well culture plates (Nunc, Apogent, Denmark) and left to adhere for 48 h. After cells adherence, the medium was replaced by the distinct solutions of the compounds in the study (30 µM for preliminary studies and 0.01, 0.1, 1, 10, 50 and 100 µM for concentration–response studies) in the appropriate medium for approximately 72 h. 5-FU and finasteride were used as positive controls and untreated cells were used as the negative control. Each experiment was performed in quadruplicate and independently performed at least two times. The in vitro antiproliferative effects were evaluated by the MTT assay (Sigma-Aldrich, Inc. St. Louis, USA). After the incubation period, the medium was removed and 100 µL of phosphate buffer saline (NaCl 137 mM, KCl 2.7 mM, Na2HPO4 10 mM and KH2PO4 1.8 mM in deionized water and pH adjusted to 7.4) were used to wash the cells. Then, 100 µL of the MTT solution (5 mg/mL) was prepared in the appropriate serum-free medium and was added to each well, followed by incubation for 4 h at 37 °C. Hereafter, the MTT containing medium was removed and the formazan crystals were dissolved in DMSO. Then the absorbance was measured at 570 nm using a microplate spectrophotometer BIO-RAD xMarkTM. Cell viability values were expressed as percentages relative to the absorbance determined in the cells used as negative controls.
(§4) The data are expressed as a mean ± standard deviation (SD) and differences between groups were considered statistically significant when p < 0.05. The IC50 values were determined through sigmoidal fitting analysis with variable slope and considering a 95% confidence level. All data shown are representative of at least two independent experiments.

LNCaP cells [1] = assay: MTT cell proliferation assay, LNCaP; type: cell-based, human; settings: 72 h; for MTT screening, cell proliferation: 30 µM, average ± SD
Protocol: as §1, §2, §3, §4

T47-D cells [2] = assay: MTT cell proliferation assay, T47-D; type: cell-based, human; settings: 72 h; for MTT screening, cell proliferation: 30 µM, average ± SD; for pIC50: Homo sapiens, T47D, MTT
Protocol: as §1, §2, §3, §4

[3] = system: NHDF cells (Normal Human Dermal Fibroblasts); assay: MTT cell proliferation assay, NHDF; type: cell-based; settings: 72 h; for MTT screening, cell proliferation: 30 µM, average ± SD
Protocol: as §1, §2, §3, §4

T47-D cells [4] = assay: Cell nuclear morphology and distribution analysis with ImageJ; type: cell-based, human; settings: 20 µM, 48 and 72 h
Text: The nuclear measurements were achieved by converting 16-bit photomicrographs of Hoechst 3342-stained nuclei, in different conditions, into 8-bit images and then these images were autothresholded to binary photos using the default method “Make binary” function of ImageJ v 1.49. Cell nuclei that are touching were separated and fragments were discarded based on the area through the “Analyze Particle” function. This function also provides several information pretended as nuclear area, circumference and form factor [33]. In addition, the “Nearest Neighbor Distance” was determined. This function allows measuring the distance between each cell nucleus and the nearest ones.

[5] = system: caspase-9 activity in T47-D cells; assay: Caspase-Glo 9 caspase-9 activity assay; type: cell-based, human; settings: 48 h, DOX 10 µM, 3g 10 and 20 µM, relative to untreated cells
Protocol: Promega Caspase-Glo 9 assay (Promega, Madison, WI, USA) was employed to evaluate the caspase-9 activity. T47-D cells were seeded in a 96 multiwell plate at a density of 4 × 10^4 cells/mL. After 48 h, cells were treated with the positive control, DOX, at 10 μM and with 10 and 20 μM of 3g, during 48 h. The assay was performed at the end of treatment, following the instructions provided by the manufacturer. Data are representative of at least two experiments (n = 4 in each).

LNCaP cells [6] = assay: Microscopic cell morphology observation; type: cell-based, human; settings: 24 and 72 h of treatment
Protocol: In our previous work, 16E-arylidene-4-azaandrost-5-ene derivatives were synthesized, their antiproliferative effects were evaluated and further studies were performed with the most promising steroid in LNCaP cells. Due to the similarity of 16E-arylidene-4-azaandrostenes and these novel 21E-arylidene-4-azapregnene derivatives, identical studies in this cell line were performed, namely a flow cytometry assay and microscopic cell morphology observation. To assess the viability of LNCaP cells when exposed to steroid 3g, a flow cytometry assay after PI staining was performed. Cells were treated with 3g and 5-FU during 24 and 72 h, and then a microscopic cell observation was performed to assess the possible morphological alterations and cell density changes triggered by incubation with 3g and compare with controls (Figure 6).
Similar to the previous study, the analysis of cell viability was accomplished by flow cytometry after staining dead cells with propidium iodide (PI; Invitrogen, Carlsbad, USA). Succinctly, 1 mL of a cell suspension was seeded in 12-well culture plates (initial cell density of 5 × 10^4 cells/mL of LNCaP cells for 24 h assay and 2 × 10^4 cells/mL of the same cell line for 72 h assay) in a complete culture medium. […] The percentages of each region were calculated for a total of R1 + R2 + R3. […]

| Compound | pIC50 (PC-3 cells) | MTT screening, cell proliferation (PC-3 cells) | MTT screening, cell proliferation (LNCaP cells [1]) | MTT screening, cell proliferation (T47-D cells [2]) | pIC50 (T47-D cells [2]) | melting point | MTT screening, cell proliferation [3] | pIC50 (LNCaP cells [1]; Homo sapiens, MTT) | Nearest neighbor distance (NND) of cell nuclei (T47-D cells [4]) | pIC50 ([3]; Homo sapiens, MTT) | Caspase-9 activity [5] | Cell morphology and cell density (LNCaP cells [6]) |
| --- | --- | --- | --- | --- | --- | --- | --- | --- | --- | --- | --- | --- |
| Cc1ccc(/C=C/C(=O)[C@H]2CC[C@H]3[C@@H]4CC=C5NC(=O)CC[C@]5(C)[C@H]4CC[C@]23C)cc1 [Compound 3b, 21E-[(4-Methylphenyl)methylidene]-4-azapregn-5-ene-3,20-dione] | 4.59 | 25.9 ± 3.8 percentage of negative control | 62.7 ± 9.0 percentage of negative control | 45.0 ± 11.6 percentage of negative control | 4.35 | 191 to 193 °C | 83.0 ± 3.6 percentage of negative control |  |  |  |  |  |
| COc1ccc(/C=C/C(=O)[C@H]2CC[C@H]3[C@@H]4CC=C5NC(=O)CC[C@]5(C)[C@H]4CC[C@]23C)cc1 [Compound 3d, 21E-[(4-Methoxyphenyl)methylidene]-4-azapregn-5-ene-3,20-dione] |  | 58.2 ± 6.0 percentage of negative control | 88.0 ± 15.5 percentage of negative control | 73.9 ± 14.6 percentage of negative control |  | 280 to 282 °C | 52.4 ± 2.8 percentage of negative control |  |  |  |  |  |
| C[C@]12CC[C@H]3[C@@H](CC=C4NC(=O)CC[C@@]43C)[C@@H]1CC[C@@H]2C(=O)/C=C/c1ccco1 [Compound 3e, 21E-[(Furan-2-yl)methylidene]-4-azapregn-5-ene-3,20-dione] |  | 82.7 ± 6.5 percentage of negative control | 85.3 ± 6.7 percentage of negative control | 92.6 ± 7.4 percentage of negative control |  | 260 to 261 °C | 111.6 ± 13.9 percentage of negative control |  |  |  |  |  |
| Cc1ccc(/C=C/C(=O)[C@H]2CC[C@H]3[C@@H]4CC=C5NC(=O)CC[C@]5(C)[C@H]4CC[C@]23C)o1 [Compound 3f, 21E-[(5-Methylfuran-2-yl)methylidene]-4-azapregn-5-ene-3,20-dione] |  | 108.1 ± 7.8 percentage of negative control | 88.9 ± 17.7 percentage of negative control | 104.3 ± 11.3 percentage of negative control |  | 200 to 203 °C | 89.7 ± 9.7 percentage of negative control |  |  |  |  |  |
| O=c1[nH]cc(F)c(=O)[nH]1 [Compound 5-FU, 5-fluorouracil, reference compound] | 5.48 | 10.8 ± 3.1 percentage of negative control | 18.6 ± 2.6 percentage of negative control | 42.3 ± 6.4 percentage of negative control | 6.15 |  | 33.6 ± 8.2 percentage of negative control | 5.82 | different distances | 4.53 |  |  |
| COc1cccc2c1C(=O)c1c(O)c3c(c(O)c1C2=O)C[C@@](O)(C(=O)CO)C[C@@H]3O[C@H]1C[C@H](N)[C@H](O)[C@H](C)O1 [DOX, doxorubicin, reference compound] |  |  |  |  |  |  |  |  |  |  | significant elevation in caspase-9 activity |  |
| CC(C)(C)NC(=O)[C@H]1CC[C@H]2[C@@H]3CC[C@H]4NC(=O)C=C[C@]4(C)[C@H]3CC[C@]12C [Finasteride, reference compound] |  | 78.8 ± 8.7 percentage of negative control | 88.5 ± 2.4 percentage of negative control | 103.5 ± 17.8 percentage of negative control |  |  | 62.8 ± 5.9 percentage of negative control |  |  |  |  | cell density reduction and the preservation of healthy cells morphology |
